According to patent US20190262457A1, “NOVEL ALKYLATING AGENT” (CHIBA-PREFECTURE, priority 2016, published 2019):

What was measured:
PD-1 gene = test: Experiment to silence PD-1 gene (RT-PCR / real-time PCR); format: cell-based, human; conditions: SW480 cells, 100 nM, 6 hours
Protocol: (§1) SW480 cells were cultured in a 6-well plate. On the next day, the cells were treated with 0, 1, 10, or 100 nM CCC07-01 for 6 hours. The cells were collected, and total RNA was extracted therefrom. The extraction employed RNeasy Plus Mini Kit (Qiagen N.V., CA). Next, cDNA was prepared by reverse transcription with the extracted RNA as a template according to Super Script VILO cDNA Synthesis kit (Invitrogen Corp., CA). RT-PCR was performed with the cDNA as a template under the following conditions: the conditions for PD-1 involved denaturation at 95° C. and then 33 cycles each involving 95° C. for 30 seconds, 56° C. for 30 seconds, and 72° C. for 30 seconds, followed by elongation reaction at 72° C. for 5 minutes. For a control, RT-PCR of GAPDH was performed using the same cDNA as above. The conditions for GAPDH involved denaturation at 95° C. and then 22 cycles each involving 95° C. for 30 seconds, 55° C. for 30 seconds, and 72° C. for 30 seconds, followed by elongation reaction at 72° C. for 5 minutes.
Each RT-PCR product was electrophoresed on 2% agarose and stained with ethidium bromide. qPCR was further performed. […] A relative expression level was quantified with GAPDH as a control.

PD-L1 gene = test: Experiment to silence PD-L1 gene (RT-PCR / real-time PCR), CCC07-01; format: cell-based, human; conditions: RKO cells, 10 nM, 24 hours
Protocol: as §1, with “RKO cells” for “SW480 cells”, “for 24” for “for 6”, “for PD-L1” for “for PD-1”, “then 25” for “then 33”, “seconds, 60°” for “seconds, 56°”
Each RT-PCR product was electrophoresed on 2% agarose and then stained with ethidium bromide. qPCR was further performed. […] A relative expression level was quantified with GAPDH as a control.

CTLA-4 gene = test: Experiment to silence CTLA-4 gene (semi-quantitative RT-PCR), CCC07-01; format: cell-based, human; conditions: A2058 cells, 10 nM, 24 hours
Protocol: A2058 or MIA PaCa-2 cells were cultured in a 6-well plate. On the next day, the cells were treated with 0, 1, or 10 nM CCC07-01 for 24 hours. The cells were collected, and total RNA was extracted therefrom. The extraction employed RNeasy Plus Mini Kit (Qiagen N.V., CA). Next, cDNA was prepared by reverse transcription with the extracted RNA as a template according to Super Script VILO cDNA Synthesis kit (Invitrogen Corp., CA). RT-PCR was performed with the cDNA as a template under the following conditions: the conditions involved denaturation at 95° C. for 2 minutes and then 33 cycles each involving 95° C. for 30 seconds, 60° C. for 30 seconds, and 72° C. for 30 seconds, followed by elongation reaction at 72° C. for 5 minutes. For a control, RT-PCR of GAPDH was performed using the same cDNA as above. The conditions for GAPDH involved denaturation at 95° C. for 2 minutes and then 22 cycles each involving 95° C. for 30 seconds, 55° C. for 30 seconds, and 72° C. for 30 seconds, followed by elongation reaction at 72° C. for 5 minutes. Each PCR product was electrophoresed on 2% agarose and then stained with ethidium bromide. The concentration of the band of the PCR product of CTLA-4 was calculated with the GAPDH band as a control using Image J. The concentrations of the PCR products for each concentration of PIP were compared for quantification.

[1] = log-P (octanol/water partition coefficient) by HPLC, indole/curcumin calibration curve; format: physicochemical; conditions: calculated from indole/curcumin calibration curve, listed as CCC07-001
Protocol: The polyamides were further analyzed for log-P (octanol/water partition coefficient) by HPLC. The retention times of 2 types of compounds (compound names) having a known log-P value and the polyamides were measured in the presence of a mixed solvent of 0.1% aqueous acetic acid solution and acetonitrile by HPLC using isocratic elution. […] The log-P values of the polyamides were calculated from the curve.

[2] = test system: subcutaneously transplanted RKO tumor; test: Tumor volume in RKO-transplanted humanized NSG mice; format: in vivo; conditions: humanized NSG mouse
Protocol: (§2) 1×10^7 cells of human PBMC (Precision Bioservices Inc.) were intravenously transplanted to each NSG mouse (NOD.Cg-Prkdc^scidI/2rg^tm1Wj1/SzJ; Charles River Laboratories Japan, Inc.) to prepare a humanized NSG mouse. One week after the PBMC transplantation, 1×10^7 RKO cells (ATCC) were subcutaneously transplanted to each humanized NSG mouse. After the transplantation, CCC07-01 was intravenously administered at 2.3 or 9.2 mg/kg to the mouse when tumorigenesis was able to be confirmed. The tumor size was measured over time, and the tumor volume (mm^3) was calculated according to the expression: Tumor volume=[…]. One week after the CCC07-01 administration, the spleen was harvested and homogenized in 2% FBS/PBS to prepare a cell suspension. The spleen cells were stained with a fluorescently labeled anti-human CD4 antibody, anti-human CD8 antibody and anti-human Foxp3 antibody and analyzed for the numbers of cytotoxic T cells (CD8-positive cells) and regulatory T cells (Treg: CD4-positive and Foxp3-positive cells) using a flow cytometer. Statistical processing was performed by the Mann-Whitney U test, and the significance level was set to P<0.05.

[3] = test system: cytotoxic T cells (CD8-positive cells) and regulatory T cells (Treg); test: Ratio of cytotoxic T cells to Treg in the spleen of RKO-transplanted humanized NSG mice (flow cytometer); format: in vivo, mouse; conditions: one week after administration
Protocol: as §2

CC(=O)Nc1cn(C)c(C(=O)Nc2cc(C(=O)Nc3cn(C)c(C(=O)Nc4cn(C)c(C(=O)NCCC(=O)Nc5cc(C(=O)Nc6cc(C(=O)NCCCC(=O)Nc7cc(C(=O)Nc8cn(C)c(C(=O)NCCC(=O)Nc9cc(C(=O)Nc%10cc(C(=O)Nc%11ccc%12[nH]c(C(=O)N%13CC(CCl)c%14c%13cc(O)c%13ccccc%14%13)cc%12c%11)n(C)c%10)n(C)c9)n8)n(C)c7)n(C)c6)n(C)c5)n4)n3)n(C)c2)n1 (centres unmarked) [CCC07-01]
expression of PD-1 (PD-1 gene): markedly decreased | expression of PD-L1 (PD-L1 gene): markedly decreased | expression of CTLA-4 (CTLA-4 gene): markedly decreased | logPow [1]: 3.13 | T/C ratio ([2]; 2.3 mg/kg intravenous): 56.0% | T/C ratio ([2]; 9.2 mg/kg intravenous): 41.5% | CD8-positive cell/Treg ratio in the spleen ([3]; 2.3 mg/kg intravenous): 116.5 | CD8-positive cell/Treg ratio in the spleen ([3]; 9.2 mg/kg intravenous): 323.2
